Activity and IC50 data for 3 compounds are collected here from ChEMBL document CHEMBL4699580, “Drophiobiolins A and B, Bioactive Ophiobolan Sestertepenoids Produced by Dreschslera gigantea” (J Nat Prod, 2020).

The subject of one assay is NCI-H1299. Nature of the assay: Cytotoxicity against human NCI-H1299 cells assessed as reduction in cell viability at 0.5 to 10 uM after 24 hrs by MTT assay. In kind it is functional, cell-based. The settings on record: dose microM 0.5-10, time 24.0 hrs. In general terms: Tetrazolium assays rely on reduction of a dye to a coloured formazan, in cell work by metabolically active cells.

Assay [1] concerns Digitaria sanguinalis. Nature of the assay: Phytotoxicity against Digitaria sanguinalis leaves assessed as diameter of necrosis at 10^-3 M by leaf-puncture assay. In kind it is functional. The settings on record: dose 0.001 M; 1000 µM.
Assay [2] relates to Solanum lycopersicum. Nature of the assay: Phytotoxicity against Lycopersicon esculentum leaf assessed as diameter of necrosis at 10^-3 M by leaf-puncture assay. In kind it is functional. The settings on record: dose 0.001 M; 1000 µM.
Assay [3] has as its system HeLa. As to the kind of experiment: Cytotoxicity against human HeLa cells assessed as reduction in cell viability after 24 hrs by MTT assay. In kind it is functional, cell-based.
Assay [4] relates to Chenopodium album. As to the kind of experiment: Phytotoxicity against Chenopodium album leaf assessed as diameter of necrosis at 10^-4 M by leaf-puncture assay. The settings on record: dose 0.0001 M; 100 µM. In kind it is functional.
In assay [5] the test system is Digitaria sanguinalis. As to the kind of experiment: Phytotoxicity against Digitaria sanguinalis leaf assessed as diameter of necrosis at 10^-4 M by leaf-puncture assay. The conditions noted are these: dose 0.0001 M; 100 µM. In kind it is functional.
The next assay has as its system HaCaT. Nature of the assay: Cytotoxicity against human HaCaT cells assessed as reduction in cell viability at 0.5 to 10 uM after 24 hrs by MTT assay relative to control. The conditions noted are these: dose microM 0.5-10. In kind it is functional.
In another assay the test system is A-431. Nature of the assay: Cytotoxicity against human A-431 cells assessed as reduction in cell viability at 0.5 to 10 uM after 24 hrs by MTT assay relative to control. In kind it is functional. The settings on record: dose microM 0.5-10.
Assay [6] concerns HeLa. As to the kind of experiment: Cytotoxicity against human HeLa cells assessed as reduction in cell viability at 0.5 to 10 uM after 24 hrs by MTT assay relative to control. The conditions noted are these: dose microM 0.5-10. In kind it is functional.
The subject of assay [7] is Chenopodium album. As to the kind of experiment: Phytotoxicity against Chenopodium album leaf assessed as diameter of necrosis at 10^-3 M by leaf-puncture assay. In kind it is functional. The conditions noted are these: dose 0.001 M; 1000 µM.
The test system of assay [8] is Solanum lycopersicum. As to the kind of experiment: Phytotoxicity against Lycopersicon esculentum leaf assessed as diameter of necrosis at 10^-4 M by leaf-puncture assay. In kind it is functional. The conditions noted are these: dose 0.0001 M; 100 µM.
A further assay deals with B16-F10. Nature of the assay: Antiproliferative activity against mouse B16-F10 cells assessed as reduction in cell viability after 72 hrs by MTT assay. The settings on record: B16-F10, 72 h. In kind it is functional, cell-based.
The next assay has as its system RD. As to the kind of experiment: Cytotoxicity against human RD cells assessed as reduction in cell viability relative to control. In kind it is functional.

Active and inactive are the calls of the source. The calls are words filed in the database; no cut-off is given here.

In general, IC50 refers to the midpoint of a concentration-inhibition curve. As for `CC(C)=C[C@H]1C[C@H](C)[C@]2(CC[C@]3(C)C[C@@H]4C(C)=CC(=O)/C4=C(\CO)C(=O)C[C@H]32)O1`, in the assay on NCI-H1299, the outcome was inactive. The Activity in the assay with Digitaria sanguinalis [1] is on record as 3 mm; with Solanum lycopersicum [2], 2 mm; with Chenopodium album [4], 1 mm; in the assay with Digitaria sanguinalis [5], 2 mm; in the assay with HaCaT, “<=63%”; in the assay with A-431, “<=72%”. The Activity result in the assay with HeLa [6] is on record as “<=50%”; in the assay on Chenopodium album [7], 3 mm; in the assay with Solanum lycopersicum [8], 2 mm. Besides, in the assay with HeLa [3], the IC50 turned out to be 10 µM.
Regarding `CC1=CC(=O)[C@H]2/C(C=O)=C\C[C@@H]3[C@](C)(CC[C@]3(O)[C@@H](C)CCCC(C)(C)O)C[C@H]12`, the result in the assay on NCI-H1299 was inactive. For the same compound, the Activity in the assay on Digitaria sanguinalis [1] is given as 3 mm; with Solanum lycopersicum [2] it was 2 mm; in the assay with Chenopodium album [4], 0 mm; with Digitaria sanguinalis [5] it was 2 mm; in the assay with HaCaT, “<=63%”; with A-431 it was “<=72%”. The Activity entry in the assay with HeLa [6] was “<=50%”; with Chenopodium album [7], 3 mm; in the assay on Solanum lycopersicum [8] it was 1 mm. In addition, in the assay on HeLa [3], the IC50 amounted to 10 µM.
For the compound `CC(C)=C[C@H]1C[C@H](C)[C@]2(CC[C@]3(C)C[C@H]4[C@H](C(=O)C[C@@]4(C)O)/C(C=O)=C\C[C@H]32)O1` [OPHIOBOLIN A], the Activity in the assay on Digitaria sanguinalis [1] was determined as 3 mm; with Solanum lycopersicum [2] it was 3 mm; in the assay on RD, 70%; with Chenopodium album [4] it was 2 mm; in the assay on Digitaria sanguinalis [5], 3 mm; with Chenopodium album [7], 3 mm. Besides, in the assay on Solanum lycopersicum [8], the Activity came to 3 mm. Besides, the half-maximal inhibitory concentration (IC50) in the assay on B16-F10 stood at 0.29 µM.
